Measured values: patent US4758586A, “Indolyl compounds and hyposensitivity use thereof” (USV Pharmaceutical Corp., priority 1986, dated 1988)

Tests used:
[1] = test system: Phospholipase C (PLC); assay: In vitro assay for inhibitors of Phospholipase C (PLC) from rat platelets; type: biochemical; settings: read-out: PLC, I50
Source text: A. Protocol For In Vitro Assay For Inhibitors Of Phospholipase C (PLC)
The PLC employed in this screen is obtained by aggregation of purified rat platelets in the presence of CaCl2 and ADP. In the enzyme assay phosphatidylinositol having ^3 H -labeled arachidonate residues at R2 is employed as substrate. PLC acts by cleaving the phosphate ester bond yielding diglyceride as follows: [drawing 18]
Following completion of the reaction, the assay medium is acidified and extracted with hexane which takes up unreacted substrate and diglyceride. The hexane extract is passed over a short silica gel column which retains 99% of the phosphatidylinositol. The ^3 H-labeled diglyceride is not retained […]. The diglyceride is conveniently quantitated by liquid scintillation spectrometry.
The compounds were tested at 300 u in a buffer containing 0.06 mM unlabeled phosphatidylcholine (PC), 20-30,000 cpm of (CPC), 150 mM NaCl, 5 mM CaCl2 and 50 mM tris(hydroxymethyl)methylaminopropanesulfonic acid buffer, adjusted to pH 9.0 with 1N NaOH. The temperature of the buffer was maintained at a temperature of 37° C. The reaction was initiated by addition of the enzyme and it was terminated 10 minutes later by addition of 1 ml of 1N HCl.
Following acidification, the samples were extracted with 2 ml of isopropyl alcohol and 2 ml of hexane, vortexed and allowed to stand until the phases separate. […] and some unreacted substrate were taken up in the isopropanol-saturated hexane. The hexane phase of the extraction mixture was transferred to a short silica gel column which retains unreacted phosphatidylinositol, but not the 3H-diglyceride. The column effluent was collected directly in scintillation vials. The columns were washed once with additional 2 ml of hexane. The radiolabelled diglycerides were quantitated by liquid scintillation.

[2] = biological target: T1, Phospholipase A2 (PLA2) (Rattus norvegicus, UniProt P14423); assay: In vitro assay for inhibitors of Phospholipase A2 (PLA2) from rat platelets; type: biochemical; settings: pH 7.2, 37° C.; read-out: PLA2, I50
T1 construct: obtained by aggregation of purified rat platelets; from tissue; host or cells: rat platelets (enzyme obtained by aggregation)
T1 sequence (P14423 22-146): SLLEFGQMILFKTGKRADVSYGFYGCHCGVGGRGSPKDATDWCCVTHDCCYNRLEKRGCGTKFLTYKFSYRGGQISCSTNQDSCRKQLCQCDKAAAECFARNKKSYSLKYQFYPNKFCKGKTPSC
Source text: B. In Vitro Assay For Inhibitors of Phospholipase A2 Assayed at pH 7.0 (PLA2)
The PLA2 employed in this screen is obtained by aggregation of purified rat platelets. In the enzyme assay phosphatidylcholine having ^14 C-labeled palmitate residues at R1 and R2 is employed as substrate. PLA2 acts by cleaving the R2 fatty acid ester bond yielding free fatty acid and lysophosphatidyl choline as follows: [drawing 19]
Following completion of the reaction, the assay medium is acidified and extracted with hexane, which takes up unreacted substrate and free fatty acid product. The hexane extract is passed over a short silica column which retains 99% of the phosphatidyl choline. The ^14 C-labeled palmitic acid is not retained (90% recovery in eluate) and is collected directly in scintillation counting vials. The released palmitic acid is conveniently quantitated by liquid scintillation spectrometry.
The compounds were tested at 100 uM in a buffer containing 0.3 mM unlabeled phosphatidylcholine (PC), 20-30,000 cpm of ^14 C(CPC), […], 1 mM CaCl2 and 50 mM tris-HCl adjusted to pH 7.2 with 1N NaOH. […] The temperature of the buffer was maintained at a temperature of 37° C. The reaction was initiated by addition of the enzyme and it was terminated 30 minutes later by the addition of […] of 1N HCl.
Following acidification, the samples were extracted with 2 ml of 2-propanol and 2 ml of hexane, vortexed and allowed to stand until the phases separated. Free fatty acids (FFA) and some unreacted substrate were taken up in the isopropanol-saturated hexane. The hexane phase of the extraction mixture was transferred to a short silica gel column which retained […] but not the FFA. The column effluent was collected directly in scintillation vials. The columns were washed once with an additional 2 ml of hexane. The radio labeled FFA were quantitated by liquid scintillation spectrometry.

[3] = test system: leukotriene C4 -induced contraction of guinea pig peripheral strips; assay: SRS-A antagonists (SALTI): leukotriene C4-induced contraction of guinea pig peripheral lung strips; settings: Cavia porcellus; 0.2 μM leukotriene C4-induced contraction; read-out: SALTI, I50 μM
Method: Protocol for SRS-A (Slow-reacting Substance of Anaphylaxis Antagonists (SALTI)
Peripheral strips of guinea pig lungs are prepared and hung in tissue baths (Metro #ME-5505, 10 ml) according to the published procedure (Pro. Nat'l. Acad. Sci., U.S.A. Volume 77, pp. 4354-4358, 1980). The strips are thoroughly rinsed in Assay Buffer and then connected with surgical silk thread to the support rods from the tissue baths. The rods are adjusted in the baths and the strips connected to the pressure transducers (Grass FT 103 or Gould UC-3). The tissue baths are aerated with 95% oxygen 5% carbon dioxide and maintained at 37° C. The Assay Buffer has been made as follows: For each liter of buffer the following are added to approximately 800 ml of water distilled in glass--6.87 g. NaCl, 0.4 g. KCl, […]. NaHCO3, 0.14 g. NaH2 PO4.H2 O, 0.21 g. MgSO4.7H2 O, and 2.0 g. D-glucose. Then a solution of 0.368 g. CaCl2.2H2 O in 100 ml glass-distilled water is slowly added to the buffer. Sufficient water is added to adjust the volume to one liter, and the solution is aerated with 95% oxygen--5% carbon dioxide. Usually 10 liters of buffer are used for an experiment with 4 tissues.
After the tissues have been repeatedly washed and allowed to equilibrate in the tissue bath, they are challenged with 1 μM histamine. After maximum contractions have been obtained, the tissues are washed, and allowed to relax back to baseline tension. This histamine challenge procedure is repeated at least 1 to 2 more times to obtain a repeatable control response. The average response to 1 μM histamine for each tissue is used to normalize all other challenges.
Responses of each tissue to a predetermined concentration of leukotriene are then obtained. Usually test compounds are examined initially at 30 μM on resting tension of the tissues without any added agonist or antagonist to determine if the compound has any possible intrinsic activity. The tissues are washed, and the test compound is added again. Leukotriene is added after the desired pre-incubation time. The intrinsic activity of the compounds, and their effect on leukotriene-induced contractions are then recorded.
The concentration required for 50% inhibition of 0.2 μM leukotriene C4 -induced contraction of guinea pig peripheral strips for representative compounds of the present invention is shown in Table 3.

With `CCC(=CC=Cc1cn(Cc2ccccc2)c2ccccc12)C(=O)O` [Example 9, 5-(1-Benzylindol-3-yl)-2-Ethyl-2,4-Pentadienoic Acid] the IC50 [1] was 37 µM, the IC50 [2] was 47 µM and the IC50 [3] was 18 µM.
